Eight compounds from paper PMC9036822 (Journal of medicinal chemistry, 2021) can be followed below.

In experiment [1] the target is PRMT5-RIOK1 complex (Homo sapiens, UniProt O14744). Description: PRMT5-RIOK1 NanoBiT assay in permeabilized cells. It counts as cell-based.
The target in experiment [2] is PRMT5 C278A mutant (Homo sapiens, UniProt O14744, C278A). In words: FP competition assay with C278A mutant PRMT5.
In experiment [3] the target is PRMT5:WDR77 complex (Homo sapiens, UniProt O14744). In words: SPR competition assay, full-length pICln titrated on pre-incubated PRMT5:WDR77. In kind it is binding. The settings on record: PRMT5 pre-incubated with 2 μM compound overnight at 4C.
Sequence of PRMT5:WDR77 complex (O14744 whole entry): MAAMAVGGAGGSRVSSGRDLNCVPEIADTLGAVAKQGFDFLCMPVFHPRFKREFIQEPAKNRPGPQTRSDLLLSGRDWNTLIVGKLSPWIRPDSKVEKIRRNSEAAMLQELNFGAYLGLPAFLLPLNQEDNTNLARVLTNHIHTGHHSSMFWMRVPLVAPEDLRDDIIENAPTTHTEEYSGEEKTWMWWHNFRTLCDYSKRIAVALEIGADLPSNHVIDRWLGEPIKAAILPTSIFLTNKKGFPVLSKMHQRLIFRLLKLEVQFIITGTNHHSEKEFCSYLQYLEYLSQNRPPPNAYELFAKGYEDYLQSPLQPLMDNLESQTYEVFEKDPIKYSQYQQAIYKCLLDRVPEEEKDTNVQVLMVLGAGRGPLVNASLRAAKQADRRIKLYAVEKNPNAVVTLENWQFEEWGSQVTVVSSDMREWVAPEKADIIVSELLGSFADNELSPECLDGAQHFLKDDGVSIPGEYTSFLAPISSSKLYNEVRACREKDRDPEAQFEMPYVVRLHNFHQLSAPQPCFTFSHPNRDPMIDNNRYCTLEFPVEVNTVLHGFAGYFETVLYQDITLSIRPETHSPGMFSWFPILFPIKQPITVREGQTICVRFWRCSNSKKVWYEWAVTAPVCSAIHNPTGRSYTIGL
Sequence of PRMT5:WDR77 complex (Q9BQA1 whole entry partner): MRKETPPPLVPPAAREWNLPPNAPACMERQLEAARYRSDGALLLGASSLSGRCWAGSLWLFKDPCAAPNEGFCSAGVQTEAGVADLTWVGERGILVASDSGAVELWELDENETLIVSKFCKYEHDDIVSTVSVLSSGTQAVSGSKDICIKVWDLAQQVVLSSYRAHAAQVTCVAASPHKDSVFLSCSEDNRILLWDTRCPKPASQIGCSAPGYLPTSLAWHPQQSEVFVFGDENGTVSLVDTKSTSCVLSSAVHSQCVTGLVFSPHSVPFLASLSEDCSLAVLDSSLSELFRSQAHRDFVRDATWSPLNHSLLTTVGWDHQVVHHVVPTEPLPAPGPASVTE
Experiment [4] has as its target PRMT5:WDR77 hetero-octameric complex (Homo sapiens, UniProt O14744). Description: Fluorescence polarization. It counts as binding. The note with it: for inhibition of PRMT5-PBM peptide binding (in words): FP assay.
Experiment [5] relates to symmetric arginine dimethylation levels in MTAP−/− HCT116 cells. Description: Western blot of total symmetric arginine dimethylation. The note with it: 25 μM. In kind it is cell-based.
In experiment [6] the target is PRMT5 (Homo sapiens, UniProt O14744). In words: Target engagement in cells. It counts as cell-based. The note with it: Expi293 cells, 6 hours, maximum labeling.
Sequence of PRMT5 (O14744 whole entry): as the sequence (O14744 whole entry) above
Sequence of PRMT5 (Q9BQA1 whole entry partner): as the sequence (Q9BQA1 whole entry partner) above

“Also recorded” adds a separate entry of the source. Where two headings read alike, the source gives them in different places. A value given as a limit tells only on which side of the number the result lay.

Sequence of PRMT5:WDR77 hetero-octameric complex (O14744 whole entry): as the sequence (O14744 whole entry) above
Sequence of PRMT5:WDR77 hetero-octameric complex (Q9BQA1 whole entry partner): as the sequence (Q9BQA1 whole entry partner) above
Sequence of PRMT5 C278A mutant (O14744 whole entry C278A): as the sequence (O14744 whole entry) above, with C278A counted along it
Sequence of PRMT5 C278A mutant (Q9BQA1 whole entry partner): as the sequence (Q9BQA1 whole entry partner) above
Sequence of PRMT5-RIOK1 complex (O14744 whole entry): as the sequence (O14744 whole entry) above
Sequence of PRMT5-RIOK1 complex (Q9BQA1 whole entry partner): as the sequence (Q9BQA1 whole entry partner) above

Regarding `Cc1ccc(N(C)C(=O)[C@H](C)n2ncc(Cl)cc2=O)cc1S(=O)(=O)NCCc1ccccn1` [Compound 29, (2S)-2-(4-chloro-6-oxo-pyridazin-1-yl)-N-methyl-N-[4-methyl-3-[2-(2-pyridyl)ethylsulfamoyl]phenyl]propanamide], the “disruption of PRMT5-RIOK1 complex, permeabilized cells (in words)” value in experiment [1] was “inactive”.

A word on the IC50: it is the concentration needed to halve the response being measured. For `Cc1ccc(NC(=O)Cn2ncc(Cl)c(Cl)c2=O)cc1S(=O)(=O)NCCc1ccccn1` [Compound 6, 2-(4,5-Dichloro-6-oxopyridazin-1(6H)-yl)-N-(4-methyl-3-(N-(2-(pyridin-2-yl)ethyl)sulfamoyl)phenyl)acetamide], the IC50 in experiment [2] is more than 100000 nM; in experiment [4], 600 nM. In addition, the “pICln binding to compound-treated PRMT5 (in words)” value in experiment [3] is “greatly reduced binding response”.

As to “competitor PBM peptide: pICln 13-mer control peptide displacing the fluorescently-labeled PBM probe (TVAGQFEDADVDH; Terminal caps are) [reference compound]”, the IC50 in experiment [2] (read-out: FP IC50 against C278A mutant, Fig. 3b, C278A PRMT5) stood at 1400 nM; in experiment [4] (read-out: FP IC50 against WT PRMT5, Fig. 3b, WT vs C278A comparison) it was 2000 nM.

In turn, `CSC[C@H]1O[C@@H](n2cnc3c(N)ncnc32)[C@H](O)[C@@H]1O` [MTA, 5′-S-Methyl-5′-thioadenosine] displayed an IC50 in experiment [4] of more than 100000 nM.

Consider `Cc1ccc(NC(=O)[C@H](C)n2ncc(Cl)cc2=O)cc1S(=O)(=O)NCCc1ccccn1` [Compound 27, (2S)-2-(4-chloro-6-oxo-pyridazin-1-yl)-N-[4-methyl-3-[2-(2-pyridyl)ethylsulfamoyl]phenyl]propanamide], for which the “symmetric arginine dimethylation levels by WB (in words)” value in experiment [5] is “reduction in symmetric arginine dimethylation levels; also recorded: reduces SDMA”. For the same compound, the “total PRMT5 protein labeled” value in experiment [6] is given as ~ 40%.

Take `O=C(NC[C@H](O)CN1CCc2ccccc2C1)c1cc(NC2COC2)ncn1` [EPZ015666]: in experiment [4], the “inhibition of PRMT5-PBM peptide binding (in words)” value (shortened to “inhibition”) is given as “failed to inhibit this binding”.

For `CN(C)S(=O)(=O)N1CCCC(NC(=O)Cn2ncc(Cl)c(Cl)c2=O)C1` (stereo not drawn) [Compound 18, 2-(4,5-Dichloro-6-oxopyridazin-1(6H)-yl)-N-(1-(N,N-dimethylsulfamoyl)piperidin-3-yl)acetamide], in experiment [4], the “inhibition” value was “no ability to displace the PBM peptide”.

In the case of `Nc1nc2cc(CC[C@H]3C[C@@H](n4ccc5c(N)ncnc54)[C@H](O)[C@@H]3O)ccc2cc1Br` [JNJ-64619178], the “inhibition” value in experiment [4] was “failed to inhibit this binding”.
